Measured values from ChEMBL document CHEMBL5385934, “Identification of two novel chemical classes of Autotaxin (ATX) inhibitors using Enalos Asclepios KNIME nodes” (Bioorg Med Chem Lett, 2024).
Activity calls are given as the source filed them. The rule behind the calls is not given here.

What was measured:
[1] = biological target: T1, Autotaxin (Homo sapiens, UniProt Q13822); experiment: Inhibition of human ATX by Amplex Red assay
[2] = biological target: T1, Autotaxin; experiment: Inhibition of human ATX assessed as decrease in LPC hydrolysis upto 2.5 uM by Amplex Red assay
[3] = biological target: T1, Autotaxin; experiment: Inhibition of human ATX at 100 uM by Amplex Red assay relative to control
[4] = biological target: T1, Autotaxin; experiment: Inhibition of human ATX assessed as decrease in LPC hydrolysis by Amplex Red assay

| IC50 [1] [µM] | inhibition [2] | inhibition [3] [%] | inhibition [4] | Compound |
| --- | --- | --- | --- | --- |
| 9.41 | Active | 87 | Active | O=C(CSc1nnc(-c2ccco2)o1)N1c2ccccc2Sc2ccc(Cl)cc21 |
| 2.53 | Active | 85 | Active | Cc1nc(Nc2cccc(C3CCCN3C(=O)c3n[nH]c4c3CCCC4)n2)sc1C (stereo not drawn) |
